Results taken from patent US8765779B2, “Tricyclic derivatives and their pharmaceutical use and compositions” (Cephalon, Inc., priority 2009, dated 2014).
Where two headings read alike, the source gives them in different places.

Biological target: T1, human 5-HT6 receptor (Homo sapiens, UniProt P50406)
T1 construct: host or cells: CHO-K1 cells, stably transfected; membranes prepared in house
Assay: Human 5-HT6 Receptor Binding Assay ([3H]LSD displacement, scintillation beads)
Details: membranes of CHO-K1 cells with recombinant human 5-HT6, 4 nM [3H]LSD, read-out: h5-HT6 (Ki)

T1 sequence (P50406 whole entry): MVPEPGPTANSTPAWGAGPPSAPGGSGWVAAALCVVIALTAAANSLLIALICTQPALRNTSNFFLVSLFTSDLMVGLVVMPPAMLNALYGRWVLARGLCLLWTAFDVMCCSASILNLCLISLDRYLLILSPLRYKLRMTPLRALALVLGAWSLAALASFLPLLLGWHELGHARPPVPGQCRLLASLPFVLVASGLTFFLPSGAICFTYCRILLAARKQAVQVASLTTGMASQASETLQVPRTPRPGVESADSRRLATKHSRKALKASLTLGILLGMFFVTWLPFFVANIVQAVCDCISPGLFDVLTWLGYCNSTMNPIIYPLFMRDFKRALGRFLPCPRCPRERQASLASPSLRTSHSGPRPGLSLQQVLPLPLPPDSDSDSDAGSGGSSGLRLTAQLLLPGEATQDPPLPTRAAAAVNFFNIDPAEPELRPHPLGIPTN

Row | SMILES | Ki (Table 1, class symbols) | Ki (specific data)
1 | O=S(=O)(c1cc(F)cc(OCc2ccccc2)c1)c1ccc2c(c1)OC1CNCCC21 (centres unmarked) [Example 484] | < 500 nM | –
2 | O=S(=O)(c1ccc2c(c1)OC1CNCCC21)c1cccc(OCC2CCOCC2)c1Cl (centres unmarked) [Example 485] | < 500 nM | –
3 | COc1c(F)cc(F)cc1S(=O)(=O)c1ccc2c(c1)OC1CNCCC21C (centres unmarked) [Example 486] | < 500 nM | –
4 | COc1cc(OC)cc(S(=O)(=O)c2ccc3c(c2)OC2CNCCC32C)c1 (centres unmarked) [Example 487] | < 500 nM | –
5 | CC12CCNCC1Oc1cc(S(=O)(=O)c3cccc(F)c3F)ccc12 (centres unmarked) [Example 488] | < 500 nM | –
6 | COc1cc(OC)cc(S(=O)(=O)c2ccc3c(c2)OC2CNCCC32C)c1 (centres unmarked) [Example 489] | < 500 nM | –
7 | COc1cc(OC)cc(S(=O)(=O)c2ccc3c(c2)OC2CNCCC32C)c1 (centres unmarked) [Example 490] | < 500 nM | –
8 | CC(C)C(=O)NCC1(C)NCCc2c1oc1cc(S(=O)(=O)c3cccc(F)c3)ccc21 (centres unmarked) [Example 491, N-[7-(3-Fluoro-benzenesulfonyl)-1-methyl-1,2,3,4-tetrahydro-benzofuro[2,3-c]pyridin-1-ylmethyl]-isobutyramide] | < 500 nM | –
9 | CC(C)C1NCCc2c1oc1cc(S(=O)(=O)c3cccc(F)c3)ccc21 (centres unmarked) [Example 495] | < 500 nM | –
10 | O=S(=O)(c1cccc(F)c1)c1ccc2c3c(oc2c1)C(C1CCOCC1)NCC3 (centres unmarked) [Example 496] | < 500 nM | –
11 | O=S(=O)(c1cccc(F)c1)c1ccc2c3c(oc2c1)C(CCBr)NCC3 (centres unmarked) [Example 497] | < 500 nM | –
12 | COCC1NCCc2c1oc1cc(S(=O)(=O)c3cccc(F)c3)ccc21 (centres unmarked) [Example 498] | < 500 nM | –
13 | CCCCC1NCCc2c1oc1cc(S(=O)(=O)c3cccc(Cl)c3)ccc21 (centres unmarked) [Example 499] | < 500 nM | –
14 | O=S(=O)(c1cccc(Cl)c1)c1ccc2c3c(oc2c1)C(C1CCOCC1)NCC3 (centres unmarked) [Example 500] | < 500 nM | –
15 | O=S(=O)(c1cccc(Cl)c1)c1ccc2c3c(oc2c1)C(CCBr)NCC3 (centres unmarked) [Example 501, 1-(2-bromoethyl)-7-[(3-chlorophenyl)sulfonyl]-1,2,3,4-tetrahydro[1]benzofuro[2,3-c]pyridine] | < 500 nM | –
16 | COCC1NCCc2c1oc1cc(S(=O)(=O)c3cccc(Cl)c3)ccc21 (centres unmarked) [Example 502] | < 500 nM | –
17 | O=S(=O)(c1cccc(Cl)c1)c1ccc2c3c(oc2c1)C(C1CC1)NCC3 (centres unmarked) [Example 503] | < 500 nM | –

Row | SMILES | Ki (Table 1, class symbols) | Ki (specific data)
18 | O=S(=O)(c1cccc(Cl)c1)c1ccc2c3c(oc2c1)C(CC(F)(F)F)NCC3 (centres unmarked) [Example 504] | < 500 nM | –
19 | CC(C)C1NCCc2c1oc1cc(S(=O)(=O)c3cccc(Cl)c3)ccc21 (centres unmarked) [Example 505] | < 500 nM | –
20 | CCCCC1NCCc2c1oc1cc(S(=O)(=O)c3cccc(F)c3)ccc21 (centres unmarked) [Example 506] | < 500 nM | –
21 | O=S(=O)(c1cccc(F)c1)c1ccc2c3c(oc2c1)C(CC(F)(F)F)NCC3 (centres unmarked) [Example 507] | < 500 nM | –
22 | O=S(=O)(c1cccc(F)c1)c1ccc2c3c(oc2c1)C(C(F)F)NCC3 (centres unmarked) [Example 509] | < 500 nM | –
23 | O=S(=O)(c1cccc(F)c1)c1ccc2c3c(oc2c1)C(C(F)(F)F)NCC3 (centres unmarked) [Example 510] | < 500 nM | –
24 | O=S(=O)(c1cccc(F)c1)c1ccc2oc3c(c2c1)CCNC3C(F)(F)F (centres unmarked) [Example 511] | > 1000 nM | –
25 | CC(C)C1NCCc2c1oc1ccc(S(=O)(=O)c3cccc(F)c3)cc21 (centres unmarked) [Example 512] | < 500 nM | –
26 | O=S(=O)(c1cccc(F)c1)c1ccc2oc3c(c2c1)CCNC3C1CCCC1 (centres unmarked) [Example 513] | < 500 nM | –
27 | O=S(=O)(c1cccc(F)c1)c1ccc2oc3c(c2c1)CCNC3CCBr (centres unmarked) [Example 514] | < 500 nM | –
28 | COCC1NCCc2c1oc1ccc(S(=O)(=O)c3cccc(F)c3)cc21 (centres unmarked) [Example 515] | > 1000 nM | –
29 | O=S(=O)(c1cccc(F)c1)c1ccc2oc3c(c2c1)CCNC3C1CCOC1 (centres unmarked) [Example 516] | < 500 nM | –
30 | O=S(=O)(c1cccc(F)c1)c1ccc2oc3c(c2c1)CCNC3C1CC1 (centres unmarked) [Example 517] | < 500 nM | –
31 | O=S(=O)(c1cccc(F)c1)c1ccc2oc3c(c2c1)CCNC3CC(F)(F)F (centres unmarked) [Example 518] | > 1000 nM | –
32 | O=S(=O)(c1ccccc1)c1ccc2c3c([nH]c2c1)C1(CCOC1)NCC3 (stereo not drawn) [Example 546, 7-(Phenylsulfonyl)-2,3,4,4′,5′,9-hexahydrospiro[beta-carboline-1,3′-furan]trifluoroacetate] | < 500 nM | –
33 | Ic1ccc2c3c([nH]c2c1)C1(CCCOC1)NCC3 (stereo not drawn) [Example 547, 7-Iodo-2,3,4,5′,6′,9-hexahydro-4′H-spiro[beta-carboline-1,3′-pyran]trifluoroacetate] | < 500 nM | –

The remaining lines, values ahead:

Row | Ki (Table 1, class symbols) | Ki (specific data) | SMILES
34 | 500 to 1000 nM | – | O=S(=O)(c1cccc(F)c1)c1ccc2oc3c(c2c1)CCNC3CCC(F)(F)F (centres unmarked) [Example 519]
35 | < 500 nM | – | O=S(=O)(c1cccc(F)c1)c1ccc2oc3c(c2c1)CCNC3C1CCOCC1 (centres unmarked) [Example 520]
36 | < 500 nM | – | O=S(=O)(c1cccc(Cl)c1)c1ccc2c3c(oc2c1)C(C1CCOC1)NCC3 (centres unmarked) [Example 521]
37 | < 500 nM | – | O=S(=O)(c1cccc(Cl)c1)c1ccc2c3c(oc2c1)C(CCC(F)(F)F)NCC3 (centres unmarked) [Example 522]
38 | < 500 nM | – | O=S(=O)(c1ccccc1)c1ccc2c3c(oc2c1)C(C(F)F)NCC3 (centres unmarked) [Example 523]
39 | < 500 nM | – | CC1(C(F)F)NCCc2c1oc1cc(S(=O)(=O)c3ccccc3)ccc21 (centres unmarked) [Example 524]
40 | < 500 nM | – | CC1(CO)NCCc2c1oc1cc(S(=O)(=O)c3ccccc3)ccc21 (centres unmarked) [Example 525]
41 | – | 93 nM | O=S(=O)(c1cccc(F)c1)c1ccc2c3c([nH]c2c1)C(C(F)(F)F)NCC3 (stereo not drawn) [Example 527, 7-[(3-fluorophenyl)sulfonyl]-1-(trifluoromethyl)-2,3,4,9-tetrahydro-1H-beta-carboline]
42 | < 500 nM | – | CC(=O)NCC1NCCc2c1oc1ccc(S(=O)(=O)c3cccc(F)c3)cc21 (centres unmarked) [Example 531, N-({6-[(3-fluorophenyl)sulfonyl]-1,2,3,4-tetrahydro[1]benzofuro[2,3-c]pyridin-1-yl}methyl)acetamide]
43 | 500 to 1000 nM | – | CC(=O)NCCC1NCCc2c1oc1ccc(S(=O)(=O)c3cccc(F)c3)cc21 (centres unmarked) [Example 532, N-(2-{6-[(3-fluorophenyl)sulfonyl]-1,2,3,4-tetrahydro[1]benzofuro[2,3-c]pyridin-1-yl}ethyl)acetamide]
44 | < 500 nM | – | CC(=O)N(C)CC1NCCc2c1oc1ccc(S(=O)(=O)c3cccc(F)c3)cc21 (centres unmarked) [Example 533, N-({6-[(3-Fluorophenyl)sulfonyl]-1,2,3,4-tetrahydro[1]benzofuro[2,3-c]pyridin-1-yl}methyl)-N-methylacetamide]
45 | < 500 nM | – | CC(=O)N(C)CCC1NCCc2c1oc1ccc(S(=O)(=O)c3cccc(F)c3)cc21 (centres unmarked) [Example 534, N-(2-{6-[(3-Fluorophenyl)sulfonyl]-1,2,3,4-tetrahydro[1]benzofuro[2,3-c]pyridin-1-yl}ethyl)-N-methylacetamide]
46 | < 500 nM | – | O=S(=O)(c1ccccc1)c1ccc2c3c([nH]c2c1)C1(CCOCC1)NCC3 [Example 545, 7-(Phenylsulfonyl)-2,2′,3,3′,4,5′,6′,9-octahydrospiro[beta-carboline-1,4′-pyran]trifluoroacetate]
47 | < 500 nM | – | C#CCOc1cccc(S(=O)(=O)c2ccc3c(c2)OC2CNCCC32)c1 (centres unmarked) [Example 549]
48 | 500 to 1000 nM | – | N#Cc1ccccc1COc1cccc(S(=O)(=O)c2ccc3c(c2)OC2CNCCC32)c1 (centres unmarked) [Example 550]
49 | < 500 nM | – | N#Cc1ccc(COc2cccc(S(=O)(=O)c3ccc4c(c3)OC3CNCCC43)c2)cc1 (centres unmarked) [Example 551]
50 | < 500 nM | – | O=S(=O)(c1cccc(OCC2CCCCO2)c1)c1ccc2c(c1)OC1CNCCC21 (centres unmarked) [Example 553]
